Data published in patent publication US8759535B2, “Substituted fused imidazole derivatives, pharmaceutical compositions, and methods of use thereof” (High Point Pharmaceuticals, LLC, priority 2010, dated 2014).
Structures can show the parent of a compound that is named as a salt.

Each compound was assayed on HMOX1 (assay: HMOX1 Protein Assay (immunostaining of HO-1 in NHLF cells, GE InCell 1000)). Conditions: Homo sapiens, fold change above DMSO treated cells, 3 μM compound (asterisk), 16 h.
Format: cell-based
Method in brief: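 Fold induction of HO-1 over vehicle, normally at 5 μM compound (asterisk marks 3 μM), in 0.8% DMSO medium. Normal human lung fibroblasts were treated 16 h, then paraformaldehyde-fixed, anti-HO-1/Alexa 488 stained with Hoechst, and read by high-content imaging.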

| SMILES | fold induction at 3 µM |
| --- | --- |
| Cn1c(Nc2nc3ccc(C(F)(F)F)cc3s2)nc2cc(C(=O)NCC(=O)N3CCOCC3)ccc21 [Example 422, 1-Methyl-2-(6-trifluoromethyl-benzothiazol-2-ylamino)-1H-benzoimidazole-5-carboxylic acid (2-morpholin-4-yl-2-oxo-ethyl)-amide] | 25 |
| Cn1c(Nc2nc3ccc(Cl)cc3s2)nc2cc(C(=O)NCC(=O)N3CCC[C@H](O)C3)ccc21 [Example 433, 2-(6-Chloro-benzothiazol-2-ylamino)-1-methyl-1H-benzoimidazole-5-carboxylic acid [2-((S)-3-hydroxy-piperidin-1-yl)-2-oxo-ethyl]-amide] | 29 |
| CN(C)CCCNC(=O)c1ccc2c(c1)nc(Nc1nc3ccc(Cl)cc3s1)n2C [Example 349, 2-(6-Chloro-benzothiazol-2-ylamino)-1-methyl-1H-benzoimidazole-5-carboxylic acid (3-dimethylamino-propyl)-amide] | 29 |
| Cn1c(Nc2nc3ccc(C(F)(F)F)cc3s2)nc2cc(C(=O)NCCCCO)ccc21 [Example 221, 1-Methyl-2-(6-trifluoromethyl-benzothiazol-2-ylamino)-1H-benzoimidazole-5-carboxylic acid (4-hydroxy-butyl)-amide] | 26 |

Same assay, conditions: Homo sapiens, fold change above DMSO treated cells, 5 μM compound, 16 h

| SMILES | fold induction at 5 µM |
| --- | --- |
| CCOCCNC(=O)c1ccc2c(c1)nc(Nc1nc3ccc(OC(F)(F)F)cc3s1)n2C [Example 4, 1-Methyl-2-(6-trifluoromethoxy-benzothiazol-2-ylamino)-1H-benzoimidazole-5-carboxylic acid (2-ethoxy-ethyl)-amide] | 11.9 |
| Cn1c(Nc2nc3ccc(Cl)cc3s2)nc2cc(C(=O)NCCCO)ccc21 [Example 214, 2-(6-Chloro-benzothiazol-2-ylamino)-1-methyl-1H-benzoimidazole-5-carboxylic acid (3-hydroxy-propyl)-amide] | 42.4 |
| Cn1c(Nc2nc3ccc(OC(F)(F)F)cc3s2)nc2cc(C(=O)NCCOCC3CCCO3)ccc21 (stereo not drawn) [Example 53, 1-Methyl-2-(6-trifluoromethoxy-benzothiazol-2-ylamino)-1H-benzoimidazole-5-carboxylic acid [2-(tetrahydro-furan-2-ylmethoxy)-ethyl]-amide] | 20.1 |
| CN1CCN(C(=O)CNC(=O)c2ccc3c(c2)nc(Nc2nc4ccc(OC(F)(F)F)cc4s2)n3C)CC1 [Example 137, 1-Methyl-2-(6-trifluoromethoxy-benzothiazol-2-ylamino)-1H-benzimidazole-5-carboxylic acid [2-(4-methyl-piperazin-1-yl)-2-oxo-ethyl]-amide] | 6 |
| Cn1c(Nc2nc3ccc(Cl)cc3s2)nc2cc(C(=O)NCC(=O)N3CC[C@H](N)C3)ccc21 [Example 411, 2-(6-Chloro-benzothiazol-2-ylamino)-1-methyl-1H-benzoimidazole-5-carboxylic acid [2-((S)-3-amino-pyrrolidin-1-yl)-2-oxo-ethyl]-amide hydrochloride] | 16 |
| Cc1ccc2nc(Nc3nc4cc(C(=O)NCC(=O)N(C)C)ccc4n3C)sc2c1 [Example 363, 1-Methyl-2-(6-methyl-benzothiazol-2-ylamino)-1H-benzoimidazole-5-carboxylic acid dimethylcarbamoylmethyl-amide] | 10 |
| CN(C)CC(=O)N1CCC(CNC(=O)c2ccc3c(c2)nc(Nc2nc4ccc(Cl)cc4s2)n3C)CC1 [Example 314, 2-(6-Chloro-benzothiazol-2-ylamino)-1-methyl-1H-benzoimidazole-5-carboxylic acid [1-(2-dimethylamino-acetyl)-piperidin-4-ylmethyl]-amide] | 79.7 |
| Cn1c(Nc2nc3ccc(OC(F)(F)F)cc3s2)nc2cc(C(=O)NC3CCN(C(=O)OC(C)(C)C)CC3)ccc21 [Example 92, 4-{[1-Methyl-2-(6-trifluoromethoxy-benzothiazol-2-ylamino)-1H-benzoimidazole-5-carbonyl]-amino}-piperidine-1-carboxylic acid tert-butyl ester] | 3.4 |
| Cn1c(Nc2nc3ccc(Cl)cc3s2)nc2cc(C(=O)NC3CCN(CCNS(C)(=O)=O)C3)ccc21 (stereo not drawn) [Example 300, 2-(6-Chloro-benzothiazol-2-ylamino)-1-methyl-1H-benzoimidazole-5-carboxylic acid [1-(2-methanesulfonylamino-ethyl)-pyrrolidin-3-yl]-amide] | 26.2 |
| Cn1c(Nc2nc3ccc(OC(F)(F)F)cc3s2)nc2cc(C(=O)NCC(=O)N3CCCC3)ccc21 [Example 141, 1-Methyl-2-(6-trifluoromethoxy-benzothiazol-2-ylamino)-1H-benzimidazole-5-carboxylic acid (2-oxo-2-pyrrolidin-1-yl-ethyl)-amide] | 23.1 |
| COc1ccc(CNC(=O)c2ccc3c(c2)nc(Nc2nc4ccc(OC(F)(F)F)cc4s2)n3C)cc1O [Example 231, 1-Methyl-2-(6-trifluoromethoxy-benzothiazol-2-ylamino)-1H-benzoimidazole-5-carboxylic acid 3-hydroxy-4-methoxy-benzylamide] | 30.2 |
| CNC(=O)c1ccc2c(c1)nc(Nc1nc3ccc(C(F)(F)F)cc3s1)n2C [Example 84, 1-Methyl-2-(6-trifluoromethyl-benzothiazol-2-ylamino)-1H-benzoimidazole-5-carboxylic acid methylamide] | 19 |
| COCCn1c(Nc2nc3ccc(Cl)cc3s2)nc2cc(C(=O)NCC(=O)N3CCN(C)CC3)ccc21 [Example 428, 2-(6-Chloro-benzothiazol-2-ylamino)-1-(2-methoxy-ethyl)-1H-benzoimidazole-5-carboxylic acid [2-(4-methyl-piperazin-1-yl)-2-oxo-ethyl]-amide] | 24.4 |
| Cn1c(Nc2nc3ccc(Cl)cc3s2)nc2cc(C(=O)NCCOCCCO)ccc21 [Example 248, 2-(6-Chloro-benzothiazol-2-ylamino)-1-methyl-1H-benzoimidazole-5-carboxylic acid [2-(3-hydroxy-propoxy)-ethyl]-amide] | 58.7 |
| Cn1c(Nc2nc3ccc(Cl)cc3s2)nc2cc(C(=O)NCCOCCC#N)ccc21 [Example 266, 2-(6-Chloro-benzothiazol-2-ylamino)-1-methyl-1H-benzoimidazole-5-carboxylic acid [2-(2-cyano-ethoxy)-ethyl]-amide] | 57 |
| CC(=O)c1ccc2c(c1)nc(Nc1nc3ccc(OC(F)(F)F)cc3s1)n2C [Example 200, 1-[1-Methyl-2-(6-trifluoromethoxy-benzothiazol-2-ylamino)-1H-benzoimidazol-5-yl]-ethanone] | 22.9 |
| Cn1c(Nc2nc3ccc(Cl)cc3s2)nc2cc(C(=O)NCCCCO)ccc21 [Example 220, 2-(6-Chloro-benzothiazol-2-ylamino)-1-methyl-1H-benzoimidazole-5-carboxylic acid (4-hydroxy-butyl)-amide] | 61.9 |
| Cn1c(Nc2nc3ccc(OC(F)(F)F)cc3s2)nc2cc(C(=O)O)ccc21 [Example 3, 1-Methyl-2-(6-trifluoromethoxy-benzothiazol-2-ylamino)-1H-benzoimidazole-5-carboxylic acid] | 12.5 |
| Cn1c(Nc2nc3ccc(OC(F)(F)F)cc3s2)nc2cc(C(=O)NC[C@H](O)CO)ccc21 [Example 280, 1-Methyl-2-(6-trifluoromethoxy-benzothiazol-2-ylamino)-1H-benzoimidazole-5-carboxylic acid ((S)-2,3-dihydroxy-propyl)-amide] | 38.8 |
| Cn1c(Nc2nc3ccc(OC(F)(F)F)cc3s2)nc2cc(C(=O)NC[C@@H](O)CO)ccc21 [Example 281, 1-Methyl-2-(6-trifluoromethoxy-benzothiazol-2-ylamino)-1H-benzoimidazole-5-carboxylic acid ((R)-2,3-dihydroxy-propyl)-amide] | 35.6 |
| CCNC(=O)c1ccc2c(c1)nc(Nc1nc3ccc(C(F)(F)F)cc3s1)n2CC [Example 181, 1-Ethyl-2-(6-trifluoromethyl-benzothiazol-2-ylamino)-1H-benzoimidazole-5-carboxylic acid ethylamide] | 23 |
| CN1CCC(NC(=O)CNC(=O)c2ccc3c(c2)nc(Nc2nc4ccc(Cl)cc4s2)n3C)CC1 [Example 386, 2-(6-Chloro-benzothiazol-2-ylamino)-1-methyl-1H-benzoimidazole-5-carboxylic acid [(1-methyl-piperidin-4-ylcarbamoyl)-methyl]-amide] | 58.3 |
| CCNC(=O)c1ccc2c(c1)nc(Nc1nc3ccc(OC(F)(F)F)cc3s1)n2CC [Example 156, 1-Ethyl-2-(6-trifluoromethoxy-benzothiazol-2-ylamino)-1H-benzoimidazole-5-carboxylic acid ethylamide] | 21 |
| Cn1c(Nc2nc3ccc(OC(F)(F)F)cc3s2)nc2cc(C(=O)NCC(=O)N3C[C@H](O)[C@@H](O)C3)ccc21 [Example 407, 1-Methyl-2-(6-trifluoromethoxy-benzothiazol-2-ylamino)-1H-benzoimidazole-5-carboxylic acid [2-((3S,4S)-3,4-dihydroxy-pyrrolidin-1-yl)-2-oxo-ethyl]-amide] | 7.73 |
| Cn1c(Nc2nc3ccc(OC(F)(F)F)cc3s2)nc2cc(-c3ncc[nH]3)ccc21 [Example 196, [5-(1H-Imidazol-2-yl)-1-methyl-1H-benzimidazol-2-yl]-(6-trifluoromethoxy-benzothiazol-2-yl)-amine] | 11.4 |
| CN[C@H]1CCN(C(=O)CNC(=O)c2ccc3c(c2)nc(Nc2nc4ccc(OC(F)(F)F)cc4s2)n3C)C1 [Example 414, 1-Methyl-2-(6-trifluoromethoxy-benzothiazol-2-ylamino)-1H-benzoimidazole-5-carboxylic acid [2-((S)-3-methylamino-pyrrolidin-1-yl)-2-oxo-ethyl]-amide hydrochloride] | 25.7 |
